Data from patent US8206756B2, “Herbal composition for inflammatory disorders” (Piramal Life Sciences Limited, priority 2005, dated 2012).

Key:
[1] = tested on: THP-1 cell adhesion to HUVECs; test: Adhesion of THP-1 mononuclear cells to HUVEC monolayers; assay type: cell-based, human; conditions: for Fluorescence Intensity: TNF-α 1 ng/ml; for Fold of control: unstimulated DMSO control = 1, stimulated = 18
Experimental: Adhesion studies were performed with the promonocytic cell line THP-1, which has been established as a useful model for monocytes in adhesion studies in Circ. Res., 97, 236-243, 2005, with modifications. THP-1 cells were washed twice with labeling medium (M200 plus LSGS). THP-1 cells (6×10^5 cells per ml) were labeled with 10 μg/ml bis-carboxyethyl-carboxyfluorescein acetoxymethylester (a fluorescent probe, BCECF-AM; Sigma) for 30 min at RT. After quenching with 0.1% BSA, the pellet was resuspended in labeling medium. To evaluate monocyte adhesion, HUVEC monolayers treated with TNF-α (1 ng/ml) in the presence or absence of various concentrations of test sample. The media was removed, washed and labeled-THP-1-cells were added to the wells (6×10^4 cells per well) and incubated for 10 minutes at RT in the dark. After co incubation, the wells were washed, filled with lysis buffer (0.1% Triton-X in 1.5 M Tris buffer) and incubated for 30 min. The fluorescence was measured using a fluorescent reader (PolarStar Optima, BMG Labtech) at an excitation peak of 485 nm and an emission peak of 520 nm. Values are means±SEM, representing fluorescent adhesion data. BAY 11-7082 [(E)-3-(4-methylphenylsulfonyl)-2-propenenitrile] was used as a standard and DMSO as vehicle control.

[2] = tested on: atherosclerosis / hyperlipidemia; test: Atherosclerosis model of high fat-fed hyperlipidemic hamsters; assay type: in vivo, Golden Syrian Hamsters; conditions: Fenofibrate 100 mpk, extract 200 mpk
Experimental: The treatment effects of the extract of example 1 on prevention of aortic lesion were determined by using atherosclerosis model of high fat-fed hyperlipidemic hamster.
Details of animals used: Male Golden Syrian Hamsters, which were 7-8 weeks old and weighed approximately 100 g to 120 g, were used for the experiment. Hamsters were randomly selected for treatment group placement. Animals were earmarked using a paint marker. Animals were separated and housed in groups of three in appropriately sized solid-bottom cages. Room lighting conditions were adjusted to 12 hour light and 12 hour dark cycle. During the acclimation period the diet was Purina 5001 (Research Diets, Inc. New Brunswick, N.J., USA). A high-fat diet consisting of Purina 5001 plus 10% coconut oil, 10% corn oil, 0.5% cholesterol, and 5% fructose was administered beginning on day 1 and continued throughout the duration of study. Hamsters were provided purified tap water throughout the study.
For pretreatment lipid values, animals were bled by retro-orbital puncture following an 18-hour fast and ˜1 ml of blood was collected in a 3 ml Vacutainer® tube containing K3 EDTA. Each blood sample was centrifuged (4000 rpm, 20 min, 4° C. using an Eppendorf C5804R) and the plasma separated and was analyzed for determination of triglyceride (TG), total cholesterol, high density cholesterol (HDL) and low density cholesterol (LDL).
Preparation of dosing solution: The extract of example 1 was dissolved in vehicle [CMC (0.5%)/Tween 80 (2%)] for 200 mpk (5 ml/kg BW) dosing. The resulting solution was a fine suspension after 12-15 minutes gentle sonication. Aliquots were prepared (˜2.3 ml/vial) and stored in a freezer and were used daily.
All groups of animals were dosed orally either with vehicle or with extract of example 1 (200 mpk) for 58 days. […]
On day 58, following the 16-18 hour fasting period, animals were bled by retro-orbital puncture and ˜1 ml of blood was collected in a 3 ml Vacutainer® tube containing K3 EDTA. Each blood sample was centrifuged (4000 rpm, 20 min, 4° C. using an Eppendorf C5804R) and the plasma sample was analyzed for TG, total cholesterol, HDL and LDL.
Necropsy: On day 59, the animals were fasted for 4 h and euthanized under carbon dioxide and plasma samples were collected via cardiac puncture for lipid profiling and other analyses. […] The heart, aortic arch, thoracic and abdominal aorta up to femoral bifurcation were removed and placed in 10% formalin for en face lesion quantification.
En face analysis: Connective fascia and adventia surrounding the thoracic aorta were removed as much as possible. […] Quantitation was performed using a Nikon SMZ-U microscope with an Optronics Camera head recording the photographs. […] Quantitation was done based on percentage lesion per area.

[3] = tested on: TNF-α; test: LPS-induced TNF-α production in hPBMCs (ELISA); assay type: cell-based; conditions: Homo sapiens, LPS 1 μg/ml, 5 h, hPBMC
Experimental: (§1) Primary screening—Human peripheral blood mononuclear cells (hPBMCs). TNF-α production by lipopolysaccharides (LPS) in hPBMCs was measured according to the method described by Jansky, L. et al (Physiol. Res. 52: 593-598, (2003)). Blood was collected from healthy donors into Potassium EDTA vacutainer tubes (BD vacutainer). The PBMCs were isolated using gradient centrifugation in Histopaque-1077 solution (Sigma). Isolated PBMCs were suspended in RPMI 1640 culture medium (Gibco BRL, Pasley, UK) containing 10% fetal bovine serum (FBS) (Hyclone, Utah, USA), 100 U/ml penicillin (Sigma Chemical Co. St Louis, Mo.) and 100 μg/ml streptomycin (Sigma Chemical Co. St Louis, Mo.). The cell concentration was adjusted to 1×10^6 cells/ml. The viability as determined by trypan blue dye exclusion was uniformly ≧98%. The cell suspension (100 μl) was added to the wells of a 96-well culture plate. Following cell plating, 79 μl of the culture medium and 1 μl of eight different concentrations of the test samples (final concentration 0.03, 0.1, 0.3, 1, 3, 10, 30, 100 μg/ml) dissolved in DMSO (dimethylsulfoxide, Sigma, Mo., USA) were added to the cells. The final concentration of DMSO was adjusted to 0.5%. The vehicle (0.5% DMSO) was used as control. Rolipram (100, 300 μM) was used as a standard. The plates were incubated for 30 min at 37° C. in an atmosphere of 5% CO2. Finally, 20 μl (10 μg/ml) per well of LPS, (Escherchia coli 0127:B8, Sigma Chemical Co., St. Louis, Mo.) was added, for a final concentration of 1 μg/ml. […] The % inhibition was recorded. Percent cytotoxicity of the test samples compared to control was evaluated.
The effect of the plant extract on the proinflammatory cytokines: TNF-α, interleukin-1β (IL-1β), interleukin-6 (IL-6) and interleukin-8 (IL-8) was measured using the supernatants generated in the primary screening assay. […]
The effect of the Compound 1, on the proinflammatory cytokines: TNF-α interleukin-1β (IL-1β), interleukin-6 (IL-6) and interleukin-8 (IL-8) was measured using the supernatants generated in the primary screening assay. […]

[4] = tested on: hPBMCs; test: Cellular viability test (MTS) in hPBMCs; assay type: cell-based, human; conditions: hPBMC
Experimental: as §1, with “standard.” for “standard. The plates were incubated for 30 min at 37° C. in an atmosphere of 5% CO2. Finally, 20 μl (10 μg/ml) per well of LPS, (Escherchia coli 0127:B8, Sigma Chemical Co., St. Louis, Mo.) was added, for a final concentration of 1 μg/ml.”

[5] = tested on: DSS-induced colitis; test: DSS-induced murine model of acute colitis; assay type: in vivo, C57BL/6J mice; conditions: 15 mg/kg injected from day 5 onwards till death

Molecule: Cc1ccc(S(=O)(=O)/C=C/C#N)cc1 [BAY 11-7082, (E)-3-(4-methylphenylsulfonyl)-2-propenenitrile, reference compound]
- Fluorescence Intensity ([1]; 0.5 μM): 18442
- Fold of control ([1]; 0.5 μM): 10
- Fluorescence Intensity ([1]; 1 μM): 14271
- Fold of control ([1]; 1 μM): 8

Molecule: CC(C)OC(=O)C(C)(C)Oc1ccc(C(=O)c2ccc(Cl)cc2)cc1 [Fenofibrate]
- Plasma triglycerides level, Mean ([2]; day 58, oral, vehicle mean 2321.3): 449.2
- Plasma triglycerides level, % Change ([2]; day 58, versus vehicle): −81%
- Atherosclerosis progression (percentage lesion per area, en face aorta), Mean ([2]; day 59, vehicle mean 0.5025): 0.0834
- Atherosclerosis progression, % Change ([2]; versus vehicle): −84%

Molecule: COc1ccc(C2CNC(=O)C2)cc1OC1CCCC1 (stereo not shown) [Rolipram]
- inhibition at 100 µM ([3]; 100 μM): 84%
- inhibition at 300 µM ([3]; 300 μM): 90%
- % Toxicity at 5 h ([4]; 100 μM): 2%
- % Toxicity at 5 h ([4]; 300 μM): 21%

Molecule: infliximab: Monoclonal antibody drug (Centocor), injected 15 mg/kg in the DSS colitis model
- Survival against DSS-induced colitic death [5]: all animals in this group were dead
